Data on six compounds can be found in patent publication US10213527B2, “Functionalized titanium binding peptides and implants coated with same” (Ben-Gurion University of the Negev Research and Development …, priority 2012, dated 2019).

A short description of test [1]: Calcium-phosphate adsorption on peptide coated TiO2 surfaces (XPS). The settings on record: Ca—P solution 24 h at 37° C.; FIG. 17B. Here is the method: Surfaces were incubated in TBS solution for 45 min in room temperature, and then the surfaces were incubated in 0.4 mg ml^−1 peptide-TBS 10 mM solution for 1 hr at room temperature and were dried with nitrogen. Peptide coating were analyzed by XPS.
The ability to absorb calcium-phosphate (Ca—P) ions by the different peptide coatings were measured using Ca—P solution. The solution was prepared at physiological pH and contained K2HPO4 (1.0 mM), CaCl2.2H2O (2.5 mM), dissolved consecutively in deionized water at 37° C. and buffered at pH ˜7.4 using 50 mM Trizma™ base and an appropriate volume of 1M HCl. Coated surfaces were incubated in Ca—P solution at 37° C. for 24 h.
However it contradicts the β-cpSer adsorption isotherm result. This phenomenon can be explained by the different surface topography and surface area between TiO2 particles and TiO2 surface, adsorption surface area at adsorption isotherm experiment is 1.123 m^2 and the surface area is 10^−4 m^2. At small surface areas, the difference between peptides' adsorption cannot be observed. In order to examine the influence of the Glu tail on calcified mineralization process, titanium oxide surfaces were coated with pSer peptide or with the control peptides (cpSer or β-cpSer) and incubated for 24 hours inside calcium-phosphate solution (see Materials and Methods). Atomic concentrations of calcium and phosphorus were compared with titanium as measured by XPS.

Test [2] can be described thus: Adsorption isotherm onto TiO2 particles, Sips equation fitting. The test is classed as binding. The conditions noted are these: 10 mM TBS pH 7.4, 1 h room temperature; Sips fit. The method, then: The adsorption of all three peptides to TiO2 particles were measured with peptides solution in a range of concentrations from 0.002 to 0.524 mM in 10 mM TBS solution. TiO2 particles were suspended in TBS 10 mM, pH 7.4, to a final concentration of 1.8 mg/ml. To each test tube containing 0.5 ml of peptide at different concentrations, 0.5 ml of TiO2 particles solution was added. The samples were continuously mixed with a tube rotator for 1 h at room temperature. To precipitate the TiO2 particles, the test tubes were centrifuged at 5000 rpm for 3 minutes and the absorption of the supernatant was measured at 280 nm using a microplate-reader (BioTek instruments). Peptide concentration was determined based on calibration curve of each peptide prepared in TBS solution. In order to describe the adsorption of molecules on TiO2 particles surface the sips equation, also known as the Langmuir-Freundlich equation (1), was used:
[formula] where S is the amount of adsorbed molecules (mol m^−2), Smax is the maximum amount of molecules adsorbed (mol m^−2), C is their concentration is solution at equilibrium (mM), k is the association coefficient (M^−1) and α is the constant representing this distribution.^30
Peptide adsorption and desorption conditions were characterized by HPLC. A column was packed with micrometer size particles of the TiO2 anatase phase (see Materials and Methods). […]

A short description of test [3]: HPLC chromatography on TiO2 anatase microparticle column (Example 2). The conditions noted are these: 0.4 mg/ml in TBS (10 mM, pH=7.4) loading buffer. The test is classed as binding. Here is the method:
A stainless steel (4.6×50 mm) column was packed with TiO2 anatase (Sachtopore NP 10μ/100 Å, particle size/pore size respectively) suspended in methanol. The packed column was washed consecutively with water and 0.1 M NaOH to desorb surface contaminants. The column was then pre-equilibrated with the loading/running buffer. The chromatographic process was performed on a HPLC system (Algient Technologies, 1260 Infinity, Germany). Peptides dissolved in the loading/running buffer (0.4 mg/ml) were sonicated for 10 minutes and centrifuged at […] for 8 minutes and were injected to the TiO2 column at a flow rate of 0.02 ml/min to attain ˜40 minutes retention time for adsorption. 10 mM tris buffered saline pH 7.4 (TBS) was used as adsorption/running media. After 65 minutes, the flow rate was increased to 0.5 ml/min. Elution was carried out by gradients of 200 mM sodium bicarbonate solution pH 7.4 and 0.1 M NaOH. Elution was monitored at 280 nm. All solutions were filtered using 0.2 μm filters (Millipore, Badford, Mass.).
Peptide adsorption and desorption conditions were characterized by HPLC. A column was packed with micrometer size particles of the TiO2 anatase phase (see Materials and Methods). Tris buffer saline (TBS), pH 7.4, served as a loading buffer. […]

A short description of test [4]: Adsorption of sodium phenyl phosphate dibasic to TiO2 microparticles (solution depletion). The format is binding. More on the design: Difference in concentration of the solution between the initial and the final one: unit: mg/ml. The settings on record: TiO2 microparticles 1.8 mg/ml, TBS. The method, then:
Several solutions of sodium phenyl phosphate dibasic with different concentrations, dissolved in the same TBS, were allowed to adsorb to TiO2 microparticles (1.8 mg/ml in 1 ml). Table 6, herein below lists the initial concentrations and the difference in concentration of the solution between the initial and the one following adsorption. According to Table 6, the phenyl phosphate adsorbs only at concentrations lower than 0.25 mg/ml probably because at higher concentrations the compound undergoes some aggregation and stays only in the solution. This adsorption behavior is unusual and therefore no binding affinity constants were determined.

A short description of test [5]: Chromatography of PpSer on TiO2 anatase column (bicarbonate and NaOH elution gradients). The format is binding. From the text: Chromatography on TiO2 Surfaces: as described in Golan Gertler, Gideon Fleminger and Hanna Rapaport. Langmuir 2010, 26(9), 6457-6463, and further illustrated in FIG. 3. Stainless steel (4.6_50 mm) column was packed with TiO2 anatase (Sachtopore NP 10μ/100 A°, particle size/pore size respectively) suspended in methanol. The packed columns were washed consecutively with water and 0.1 M NaOH to desorb surface contaminants. The columns were then pre-equilibrated with the running buffer. Lyophilized peptides were dissolved in the running buffer (0.2 mg/mL) and centrifuged at 5000 g for 5 min prior to injection into the column to remove possible aggregates. The supernatants (100 μL) were injected on to the TiO2 column at a flow rate of 0.02 mL/min to attain 40 min retention time for adsorption. After 65 minutes, the flow rate was increased to 0.5 mL/min. Ten millimolar Tris and phosphate buffer solutions, pH 7.4, were used as adsorption (running) media. In addition, these buffers complemented by 150 mM NaCl (TBS, PBS, respectively) were also examined. Elution was carried out by gradients of the following solutions applied consecutively to the column: 1 M NaCl, 80% acetonitrile, 200 mM sodium phosphate, and 0.1 M NaOH, monitored at 215-280 nm. The chromatograms were obtained at room temperature using 0.2 μm filtered (Millipore, Badford, Mass.) solutions.
The peptide dissolved in two different running buffer, Tris buffer saline (TBS) and sodium bicarbonate saline (BCS). The affinity of functional groups to TiO2 from previous works was known to be PO4^−3>HCO3^−>COO^−. (The diagonal line in the chromatography is the elution gradient: 0-200 mM sodium bicarbonate & 0-0.1M NaOH).
Peptides that bind to TiO2 only through Glutamic acid functional groups will elute in BC gradient, however peptides that bind to TiO2 through pSer functional groups will elute in the NaOH gradient.
The idea behind using BCS as running buffer is to block the surface with carbonate ions before the peptide injection.

Where [6] appears, read: BCS (sodium bicarbonate saline) running buffer, FIG. 7B.

“Also recorded” adds a separate entry of the source. Non-standard residues stand in square brackets, D forms with d. Residues, ends and D or L forms follow the SMILES beside them. No end group written: not given here. pS = N[C@@H](COP(=O)(O)O)C(=O)O

Consider “Pro-Ser(phos)-Phe-Ser(phos)-Trp-(Gly)3-(Glu)5 (P[pS]F[pS]WGGGEEEEE) [pSer]”, for which, in test [1], the “calcium and phosphate adsorbed by coated surfaces (atomic ratio of P and Ca to Ti)” value is “significantly higher calcium and phosphate concentration; also recorded: adsorbs more Ca and P ions”.

Regarding “Pro-Ser(phos)-Ser(phos)-Phe-Trp-(Gly)3 (P[pS][pS]FWGGG) [β-cpSer]”, in test [2], the “Smax, maximum amount of molecules adsorbed to TiO2 surface” value is 7.48E−7 mol · m^−2. Further, the “calcium and phosphate adsorbed by coated surfaces (atomic ratio of P and Ca to Ti)” value in test [1] was “approximately the same calcium and phosphate concentrations”.

As to Trp-Glu, the “adsorption to the oxide” value in test [3] is recorded as “does not adsorb”.

For “Pro-pSer-Phe-pSer-Trp-(Gly)3 (P[pS]F[pS]WGGG) [cpSer, control peptide lacking the stretch of the Glu residues]”, the “calcium and phosphate adsorbed by coated surfaces (atomic ratio of P and Ca to Ti)” value in test [1] was “approximately the same calcium and phosphate concentrations”.

For `O=P([O-])([O-])Oc1ccccc1.[Na+].[Na+]` [sodium phenyl phosphate dibasic], the “Difference in concentration of the solution between the initial and the final one” value in test [4] (0.0625 mg/ml in adsorbing solution) was 0.02365; in test [4] (0.125 mg/ml in adsorbing solution), 0.02083; in test [4] (0.25 mg/ml in adsorbing solution) it was 0.008776; in test [4] (0.5 mg/ml in adsorbing solution), around 0; in test [4] (1 mg/ml in adsorbing solution), around 0. For the same compound, the “concentrations at which the compound adsorbs to TiO2 microparticles” value in test [4] is “lower than 0.25 mg/ml”.

In the case of `O=C(O)CC[C@H](NC(=O)[C@H](CCC(=O)O)NC(=O)[C@H](CCC(=O)O)NC(=O)[C@H](CCC(=O)O)NC(=O)[C@H](CCC(=O)O)NC(=O)CNC(=O)CNC(=O)CNC(=O)[C@H](Cc1c[nH]c2ccccc12)NC(=O)[C@H](COP(=O)(O)O)NC(=O)[C@H](Cc1c[nH]c2ccccc12)NC(=O)[C@H](COP(=O)(O)O)NC(=O)[C@@H]1CCCN1)C(=O)O` [PpSer, Pro-pSer-Trp-pSer-Trp-(Gly)3-(Glu)5] (H-P[pS]W[pS]WGGGEEEEE-OH; N-terminus and C-terminus assumed), in test [5] (setting [6]), the “fraction of the peptide able to displace the carbonate ions and bind TiO2 through pSer” value was “⅔ and two-thirds”; the “fraction of the peptide that can't displace the carbonate ions, bonded to them, eluted at BC gradient” value is “⅓ and about one third”. Also, in test [5] (TBS running buffer, 10 mM pH 7.4, FIG. 7A), the “mode of binding to TiO2 on the column” value is on record as “bonded to TiO2 through pSer functional groups”.
